The values that follow come from article PMC6420499 (Scientific Reports, 2019).

The nature of series [1]: In vitro to in vivo scaling of atRA metabolism, fetal liver extraction ratio (well-stirred model). It is filed as in vitro ADME, human. As to conditions: at any gestational age.
Series [2] is described as follows: atRA metabolite formation in human placental S9 preparations. It is filed as in vitro ADME. As to conditions: preliminary studies, data not shown.
Series [3] in a line: Metabolite identification, atRA in representative human fetal liver S9 fractions. It is filed as in vitro ADME. The note with it: 5 µM atRA, 0.3 mg S9 protein in 1 mL, 10 min, two representative livers. As to the method: (§1) The incubations were quenched with ethyl acetate, metabolites extracted as previously described[15] and the product formation was then measured by LC-MS/MS as described below. For fetal liver S9 incubations two representative livers were chosen based on the mRNA expression levels of CYP3A7 and CYP26A1. […] After a pre-incubation of 5 min the reactions were initiated with the addition of NADPH (1 mM final concentration) and allowed to proceed for 10 min.
(§2) In brief, analytes were separated using a gradient elution as follows: starting from 10:90 acetonitrile: aqueous to 1:1 acetonitrile: aqueous over 0.5 min then increased to 85:15 acetonitrile: aqueous over 4 min and then after a 0.1 min hold increased to 95:5 acetonitrile: aqueous held for 2.5 min. The aqueous phase contained 0.1 % formic acid throughout. […] Retinoid concentrations were quantified using Analyst software and peak height ratios between the analyte and the internal standard (4-oxo-RA-d3).

Series [4] concerns the target T1, recombinant CYP26A1 (Homo sapiens, UniProt O43174).
T1 construct: made in house; host or cells: baculovirus infected insect cells (membrane fractions)
T1 sequence (O43174 1-497): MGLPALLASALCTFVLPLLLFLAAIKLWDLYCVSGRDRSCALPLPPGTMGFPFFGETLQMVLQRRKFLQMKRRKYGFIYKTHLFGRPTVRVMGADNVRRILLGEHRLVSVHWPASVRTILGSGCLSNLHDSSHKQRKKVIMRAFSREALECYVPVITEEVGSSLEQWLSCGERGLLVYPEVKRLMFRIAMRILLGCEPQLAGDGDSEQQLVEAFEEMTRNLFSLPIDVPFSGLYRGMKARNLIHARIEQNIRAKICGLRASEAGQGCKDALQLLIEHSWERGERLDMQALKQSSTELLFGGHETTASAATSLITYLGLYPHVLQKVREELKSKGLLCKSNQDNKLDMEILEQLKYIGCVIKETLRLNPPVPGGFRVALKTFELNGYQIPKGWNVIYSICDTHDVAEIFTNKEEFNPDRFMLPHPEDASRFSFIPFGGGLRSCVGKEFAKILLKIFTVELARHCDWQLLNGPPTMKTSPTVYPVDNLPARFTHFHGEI
The series is described as follows: Metabolite identification, atRA with recombinant CYP26A1. It counts as in vitro ADME. As to conditions: 5 µM atRA, 5 pmol CYP26A1, 2 min. As to the method: as §1, §2

In series [5] the target is T2, recombinant CYP26B1 (Homo sapiens, UniProt Q9NR63).
T2 construct: made in house; host or cells: baculovirus infected insect cells (membrane fractions)
T2 sequence (Q9NR63 1-512): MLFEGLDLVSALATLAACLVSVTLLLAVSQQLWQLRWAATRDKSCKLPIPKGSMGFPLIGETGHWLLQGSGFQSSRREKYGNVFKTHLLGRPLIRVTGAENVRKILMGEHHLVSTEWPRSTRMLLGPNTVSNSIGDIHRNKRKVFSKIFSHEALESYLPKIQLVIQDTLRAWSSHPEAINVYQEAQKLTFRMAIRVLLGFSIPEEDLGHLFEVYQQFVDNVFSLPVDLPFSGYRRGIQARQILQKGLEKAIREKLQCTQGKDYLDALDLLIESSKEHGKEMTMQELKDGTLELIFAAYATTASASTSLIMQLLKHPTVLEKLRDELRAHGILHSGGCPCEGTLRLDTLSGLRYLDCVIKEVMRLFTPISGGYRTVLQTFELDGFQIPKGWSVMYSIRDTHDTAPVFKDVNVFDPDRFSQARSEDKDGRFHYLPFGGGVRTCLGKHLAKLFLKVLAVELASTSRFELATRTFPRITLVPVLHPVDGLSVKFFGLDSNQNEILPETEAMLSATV
As to the kind of experiment: Metabolite identification, atRA with recombinant CYP26B1. It is filed as in vitro ADME. The note with it: 5 µM atRA, 5 pmol CYP26B1, 10 min. The text has this:
(§3) The aqueous phase contained 0.1 % formic acid throughout.

On the set-up of series [6]: method as in PMID 20513361. The note with it: value used for scaling; cited from earlier work.
In series [7] the test system is atRA metabolite formation in human fetal liver S9 fractions. As to the kind of experiment: Inhibition of atRA metabolite formation in human fetal liver S9 fractions by CYP selective inhibitors. It counts as in vitro ADME. The note with it: ketoconazole 10 µM, atRA 500 nM, S9 fractions from four representative donors, vs vehicle control. As to the method: (§4) Talarozole was chosen as the CYP26 inhibitor based on previous characterization of its potency towards CYP26A1 and CYP26B1[34]. Ketoconazole was included in the analysis as it is a well characterized pan-CYP inhibitor with high potency both towards CYP3A7 and CYP26s[16],[34]. […] All of the samples were extracted and analyzed by HPLC-MS/MS. […] Incubations were performed as described above for fetal livers and analyzed for metabolite formation by HPLC-MS/MS. The percent inhibition was calculated by comparing the metabolite formation velocity in the presence of the inhibitor to vehicle control.
as §3

The test system of series [8] is CYP26. The arrangement: method as in PMID 21521770. The note with it: cited from earlier work.
Series [9] concerns CYP3A7. On the set-up: method as in PMID 21521770. As to conditions: cited from earlier work.
Series [10] relates to CYP26 (atRA metabolite formation in fetal liver S9). The series is described as follows: Inhibition of atRA metabolite formation in human fetal liver S9 fractions by CYP selective inhibitors. It is filed as in vitro ADME. The note with it: human, human fetal liver S9 fractions, probe atRA (all-trans retinoic acid), 500 nM. As to the method: as §4, §3
Series [11] addresses T3, recombinant CYP3A7 (Homo sapiens, UniProt P24462).
T3 construct: purchased BD Gentest
As to the kind of experiment: Inhibition of recombinant CYP3A7 mediated 4-OH-RA formation. It is filed as biochemical. The note with it: CYP3A7 5 pmol/mL, 10 min. Here is the method: as §4, §3

The target in series [12] is T1, recombinant CYP26A1. As to the kind of experiment: Inhibition of recombinant CYP26A1 mediated 4-OH-RA formation. It counts as biochemical. The note with it: talarozole 200 nM, atRA 500 nM, CYP26A1 2 pmol/mL, 2 min. Here is the method: as §4, §3
Series [13] concerns CYP3A7 (atRA metabolite formation in fetal liver S9). The series is described as follows: Inhibition of atRA metabolite formation in human fetal liver S9 fractions by CYP selective inhibitors. It is filed as in vitro ADME. As to conditions: human, human fetal liver S9 fractions, probe atRA (all-trans retinoic acid), 500 nM. Here is the method:
as §4, §3

T3 sequence (P24462 whole entry): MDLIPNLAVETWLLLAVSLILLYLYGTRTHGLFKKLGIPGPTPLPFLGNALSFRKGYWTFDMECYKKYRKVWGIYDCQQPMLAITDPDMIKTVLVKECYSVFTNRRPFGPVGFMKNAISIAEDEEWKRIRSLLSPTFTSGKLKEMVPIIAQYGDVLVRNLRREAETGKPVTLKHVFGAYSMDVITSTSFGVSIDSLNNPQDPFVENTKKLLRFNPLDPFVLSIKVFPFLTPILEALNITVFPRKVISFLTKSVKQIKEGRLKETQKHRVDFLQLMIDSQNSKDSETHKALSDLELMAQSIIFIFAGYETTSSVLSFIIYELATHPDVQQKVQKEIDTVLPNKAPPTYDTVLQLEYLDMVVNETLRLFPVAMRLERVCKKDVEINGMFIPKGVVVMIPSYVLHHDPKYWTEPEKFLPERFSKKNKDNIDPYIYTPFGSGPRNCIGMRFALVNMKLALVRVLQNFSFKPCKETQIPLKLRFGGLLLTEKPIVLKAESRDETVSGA

Turning to `CC1=C(/C=C/C(C)=C/C=C/C(C)=C/C(=O)O)C(C)(C)CCC1` [atRA, All-trans-retinoic acid], the “maternal atRA that could be extracted by fetal liver” value in series [1] is listed as at most 5%. The “formation of atRA metabolites” value in series [2] was “did not observe any formation of atRA metabolites”. Further, the atRA metabolites observed result in series [3] was “only the formation of 4-OH-RA and its metabolite 4-oxo-RA was observed”. The atRA metabolites formed entry in [4] and in series [5] was “hydroxylated atRA at multiple sites” in each case. In addition, in series [6], the “plasma unbound fraction (fu)” value is reported as 0.01.

Consider `CC(=O)N1CCN(c2ccc(OCC3COC(Cn4ccnc4)(c4ccc(Cl)cc4Cl)O3)cc2)CC1` (stereo not drawn) [ketoconazole], for which the “decrease in atRA metabolite formation” value in series [7] was over 95%. Further, the “inhibition of CYP26” value in series [8] is given as “inhibits”. Moreover, the “inhibition of CYP3A7” value in [9] was “inhibits”.

Broadly, the inhibition is the percentage by which the read-out fell short of the control. As to `CCC(CC)C(c1ccc(Nc2nc3ccccc3s2)cc1)n1cncn1` (stereo not drawn) [talarozole], the inhibition at 200 nM in series [10] lay within 30 to 40%. Further, the “inhibition of CYP3A7 mediated 4-OH-RA formation” value in series [11] (talarozole 200 nM, atRA 500 nM) is “did not significantly inhibit”. Also, in series [12], the “inhibition of CYP26A1” value is given as “reproduced”.

`OC(Cn1cncn1)(Cn1cncn1)c1ccc(F)cc1F` [fluconazole]: the inhibition at 200 µM in series [13] is 30 to 60%. For the same compound, the “inhibition of CYP3A7 mediated 4-OH-atRA formation” value in [11] (fluconazole 300 μM, atRA 10 µM) is “confirmed”. In addition, the “inhibition of CYP26” value in series [8] is reported as “not to inhibit”.
